# Experiments:
# PDGFRα (V561D) (h) = PDGFRα (V561D) (h) (Homo sapiens, UniProt P16234, V561D); test: Mutant kinase IC50 screen; format: biochemical
# Procedure: (§1) IC50 values for MP470.HCl were determined for four mutant c-Kit kinases, one mutant Flt3 kinase, and two mutant PDGFRα kinases.
# cKit (V560G) (h) = cKit (V560G) (h) (Homo sapiens, UniProt P10721, V560G); test: Mutant kinase IC50 screen; format: biochemical
# Procedure: as §1
# PDGFRα (D842V) (h) = PDGFRα (D842V) (h) (Homo sapiens, UniProt P16234, D842V); test: Mutant kinase IC50 screen; format: biochemical
# Procedure: as §1
# cKit (D816V) (h) = cKit (D816V) (h) (Homo sapiens, UniProt P10721, D816V); test: Mutant kinase IC50 screen; format: biochemical
# Procedure: as §1
# cKit (V654A) (h) = cKit (V654A) (h) (Homo sapiens, UniProt P10721, V654A); test: Mutant kinase IC50 screen; format: biochemical
# Procedure: as §1
# cKit (D816H) (h) = cKit (D816H) (h) (Homo sapiens, UniProt P10721, D816H); test: Mutant kinase IC50 screen; format: biochemical
# Procedure: as §1
# Flt3 (D835Y) (h) = Flt3 (D835Y) (h) (Homo sapiens, UniProt P36888, D835Y); test: Mutant kinase IC50 screen; format: biochemical
# Procedure: as §1
# A549 NSCLC cells = test: Sensitization of NSCLC cells to carboplatin; format: cell-based; conditions: Homo sapiens; A549, single agent
# Procedure: (§2) The non-small cell lung cancer cell lines A549 and NCI-H647 were used for these experiments. […] The IC50 concentrations observed for carboplatin against both of these cell lines was consistent with this.
# (§3) Two sub-IC50 doses of MP470.HCl were tested in combination with carboplatin to evaluate possible synergism between these agents and consequently a lower IC50 value for carboplatin in each of the cell lines.
# (§4) MP470.HCl was able to dramatically decrease the IC50 of carboplatin in these cells.
# NCI-H647 NSCLC cells = test: Sensitization of NSCLC cells to carboplatin; format: cell-based; conditions: Homo sapiens; NCI-H647, single agent
# Procedure: as §2, §3, §4
# [1] = both, Sprague Dawley, rat, in vivo, 72 h
# Procedure: Four groups of Sprague Dawley rats, each consisting of two males and two females, received escalating single doses of 100, 200, 800 and 2000 mg/kg of the test article. MP470.HCl was suspended in an aqueous vehicle constituting 0.5% w/v carboxymethylcellulose and administered by oral gavage. […] Doses were based on body weights on the day of dosing. The animals were euthanized after the last observation. […] A single oral dose no-observed-effect level (NOEL) was 2000 mg/kg. Acute maximum tolerated dose (MTD) was greater than 2000 mg/kg (highest dose tested).
# OVCAR-3 cells = test: OVCAR-3 cell proliferation; format: cell-based; conditions: Homo sapiens
# Procedure: The IC50 for MP470.HCl on OVCAR-3 cells proliferation was 0.9 μM (FIG. 4). It appears to have a cytostatic effect on cancer cells in addition to being cytotoxic.
# [2] = test system: Rad51 in cancer cell lines; test: Rad51 Western blot after ionizing radiation; format: cell-based; conditions: cells pretreated with MP470
# Source text: Similar to IR, the sensitivity of cancer cells to platinum-based drugs can be affected by the level of Rad51 protein.
# [3] = pKa by mixed-solvent (methanol-water) method; format: physicochemical
# Procedure: The apparent pKa in aqueous solution was extrapolated from the determined pKa values (the apparent ionization constants in methanol-water solvent) plotted versus the percent methanol used. The apparent pKa of MP470 was determined to be 6.7.
# [4] = Acute intravenous toxicity in rat, second study; format: in vivo; conditions: single intravenous dose
# Procedure: In the second IV administration study of MP470 free base, six groups of 6 rats were to be exposed to either vehicle alone or MP470 at 0.625, 1.25, 2.5, 5, or 10 mg/kg. Dosing was administered via a tail vein over approximately 30 minutes. Animals in each group were given a single intravenous dose of the test substance. Animals in the lowest dose group were dosed first, followed by at least a 10 minute period to observe any effects. If no effects were observed or if effects were observed but deemed acceptable the dosing went to the next highest dose using the same progression criteria. Progression was stopped when unacceptable, adverse effects (e.g., severe convulsions or death) occurred or when the highest dose was successfully administered without adverse effects. A control group (formulation vehicle: TV-13) was included for relevant comparison. […] Dosing occurred on Day 0 and termination on Day 4. On Day 4, the animals were sacrificed and subjected to complete, documented, gross necropsy.
# Mortality (50%) occurred in the high dose group (10 mg/kg). […] Under the conditions of this study, a maximum tolerated acute dose in the rat for MP470 was determined to be 5 mg/kg. However, a ‘no observable adverse effect level’ could not be determined due to adverse observations apparently associated with vehicle administration.
# SB-CL2 melanoma cells = test: SB-CL2 melanoma tumor model in athymic nude mice; format: in vivo; conditions: IP 50 & 75 mg/kg, qd × 5, TV-10
# Procedure: MP470 and MP470 HCl were tested against different tumor types in athymic nude mice as summarized below (Table 8). Various formulations and routes were evaluated. HT-29 colorectal cancer cells and SB-CL2 melanoma cells were implanted subcutaneously, while A549 lung cancer cells, MiaPaCa-2 pancreatic cancer cells, TT medullary thyroid cancer cells, and OVCAR-3 ovarian cancer cells were implanted […] in the hind flank of mice. All animals were allowed to develop medium-sized (80-125 mg) tumors, before initiation of dosing. Tumor volume and mouse bodyweight were followed over the course of the study.
# [5] = log P by shake-flask octanol/water partitioning; format: physicochemical; conditions: aqueous phase citrate buffer pH 2
# Procedure: The log P value for MP470 was determined by the traditional shake-flask method with octanol/water partitioning. Citrate buffer at pH 2 was the aqueous phase. The concentration of the solute in the organic phase was analyzed by HPLC analysis of MP470 with respect to a calibration curve ranging from 0.2 to 200 μg/mL MP470. The majority of MP470 was found in the organic phase. The log P value of MP470 was determined to be 2.3.
# PDGFRα (D842V) (h), sequence (P16234 24-1089 D842V): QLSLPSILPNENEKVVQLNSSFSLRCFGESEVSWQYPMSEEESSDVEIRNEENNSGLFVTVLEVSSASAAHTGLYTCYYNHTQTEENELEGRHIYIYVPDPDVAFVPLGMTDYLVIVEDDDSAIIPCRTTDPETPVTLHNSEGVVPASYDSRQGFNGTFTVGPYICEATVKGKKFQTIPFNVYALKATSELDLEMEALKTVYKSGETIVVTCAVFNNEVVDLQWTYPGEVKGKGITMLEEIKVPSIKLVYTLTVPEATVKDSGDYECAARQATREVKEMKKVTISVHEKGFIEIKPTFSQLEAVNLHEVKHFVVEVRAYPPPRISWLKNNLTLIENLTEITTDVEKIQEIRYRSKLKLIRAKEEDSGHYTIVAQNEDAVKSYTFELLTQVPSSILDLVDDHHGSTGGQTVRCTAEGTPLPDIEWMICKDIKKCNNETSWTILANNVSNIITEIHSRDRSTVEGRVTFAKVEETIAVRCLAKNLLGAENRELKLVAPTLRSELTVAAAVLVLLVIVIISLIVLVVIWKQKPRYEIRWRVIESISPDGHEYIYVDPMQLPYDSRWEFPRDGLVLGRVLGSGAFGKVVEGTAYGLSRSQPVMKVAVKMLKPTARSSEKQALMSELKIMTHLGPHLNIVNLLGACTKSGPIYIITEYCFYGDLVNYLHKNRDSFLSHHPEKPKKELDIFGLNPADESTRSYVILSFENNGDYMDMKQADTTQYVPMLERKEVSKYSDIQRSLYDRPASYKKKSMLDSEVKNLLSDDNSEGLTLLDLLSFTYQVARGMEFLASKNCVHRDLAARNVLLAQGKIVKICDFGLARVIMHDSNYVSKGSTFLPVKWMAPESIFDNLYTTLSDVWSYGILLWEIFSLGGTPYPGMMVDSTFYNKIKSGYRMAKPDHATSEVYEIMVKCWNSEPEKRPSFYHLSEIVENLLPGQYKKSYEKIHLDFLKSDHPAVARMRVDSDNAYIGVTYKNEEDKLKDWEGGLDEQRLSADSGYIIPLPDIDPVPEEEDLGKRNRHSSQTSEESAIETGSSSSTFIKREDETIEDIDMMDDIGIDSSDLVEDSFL
# cKit (V560G) (h), sequence (P10721 26-976 V560G): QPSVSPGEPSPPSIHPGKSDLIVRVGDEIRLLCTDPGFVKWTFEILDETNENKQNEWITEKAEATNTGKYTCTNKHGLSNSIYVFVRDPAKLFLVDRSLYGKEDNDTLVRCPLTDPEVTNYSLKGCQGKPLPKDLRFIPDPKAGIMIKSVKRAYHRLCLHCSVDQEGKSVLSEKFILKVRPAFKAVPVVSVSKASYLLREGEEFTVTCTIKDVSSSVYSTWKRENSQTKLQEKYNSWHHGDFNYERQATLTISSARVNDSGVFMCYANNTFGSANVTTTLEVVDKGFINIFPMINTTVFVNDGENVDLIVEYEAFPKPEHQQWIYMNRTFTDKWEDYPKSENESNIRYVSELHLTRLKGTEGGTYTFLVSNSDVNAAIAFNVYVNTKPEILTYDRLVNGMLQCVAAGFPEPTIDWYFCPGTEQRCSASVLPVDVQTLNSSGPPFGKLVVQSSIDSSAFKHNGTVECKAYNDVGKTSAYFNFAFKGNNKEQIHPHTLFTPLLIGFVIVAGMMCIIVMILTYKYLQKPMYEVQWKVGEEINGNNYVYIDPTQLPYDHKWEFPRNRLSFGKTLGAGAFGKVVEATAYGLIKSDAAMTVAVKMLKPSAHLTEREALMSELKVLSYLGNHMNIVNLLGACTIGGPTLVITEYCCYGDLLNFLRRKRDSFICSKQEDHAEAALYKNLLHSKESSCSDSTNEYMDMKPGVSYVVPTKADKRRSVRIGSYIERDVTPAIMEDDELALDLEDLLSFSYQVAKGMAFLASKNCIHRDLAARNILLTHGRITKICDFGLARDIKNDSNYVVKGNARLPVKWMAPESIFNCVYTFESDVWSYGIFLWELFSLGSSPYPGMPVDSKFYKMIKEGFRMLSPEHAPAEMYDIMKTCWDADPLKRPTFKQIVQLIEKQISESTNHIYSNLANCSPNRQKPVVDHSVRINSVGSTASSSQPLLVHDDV
# cKit (D816H) (h), sequence (P10721 26-976 D816H): as the sequence (P10721 26-976 V560G) above, with G535V, D791H counted along it
# cKit (D816V) (h), sequence (P10721 26-976 D816V): as the sequence (P10721 26-976 V560G) above, with G535V, D791V counted along it
# PDGFRα (V561D) (h), sequence (P16234 24-1089 V561D): as the sequence (P16234 24-1089 D842V) above, with V538D, V819D counted along it
# cKit (V654A) (h), sequence (P10721 26-976 V654A): as the sequence (P10721 26-976 V560G) above, with G535V, V629A counted along it
SMILES,IC50 (PDGFRα (V561D) (h)),IC50 (cKit (V560G) (h)),IC50 (PDGFRα (D842V) (h)),IC50 (cKit (D816V) (h)),IC50 (cKit (V654A) (h)),IC50 (cKit (D816H) (h)),IC50 (Flt3 (D835Y) (h)),IC50 (A549 NSCLC cells),IC50 (NCI-H647 NSCLC cells),single oral dose no-observed-effect level (NOEL) [1],Acute maximum tolerated dose (MTD) ([1]; po),IC50 (OVCAR-3 cells),Rad51 protein level after ionizing radiation [2],pKa (apparent ionization constant) ([3]; 30% (v/v) methanol),pKa (apparent ionization constant) ([3]; 60% (v/v) methanol),pKa (apparent ionization constant) ([3]; 90% (v/v) methanol),"apparent pKa ([3]; aqueous solution, extrapolated from pKa values in methanol-water)",maximum tolerated acute dose [4],Outcome: tumor growth (SB-CL2 melanoma cells),logP [5]
"Cl.S=C(NCc1ccc2c(c1)OCO2)N1CCN(c2ncnc3c2oc2ccccc23)CC1 [MP470.HCl, 4-[1]benzofuro[3,2-d]pyrimidin-4-yl-N-(1,3-benzodioxol-5-ylmethyl)piperazine-1-carbothioamide hydrochloride]",0.04 µM,0.034 µM,0.081 µM,0.95 µM,0.127 µM,0.01 µM,8.05 µM,6.9 µM,7.86 µM,2000 mg/kg,greater than 2000 mg/kg,0.9 µM,–,–,–,–,–,–,–,–
"S=C(NCc1ccc2c(c1)OCO2)N1CCN(c2ncnc3c2oc2ccccc23)CC1 [MP470, 4-[1]benzofuro[3,2-d]pyrimidin-4-yl-N-(1,3-benzodioxol-5-ylmethyl)piperazine-1-carbothioamide]",–,–,–,–,–,–,–,–,–,–,–,–,Rad51 remained near control levels even after exposure to IR,6.81,7.09,7.10,6.7,5 mg/kg,Dose dependency,2.3

# Source: patent US8445502B2, “Pharmaceutical formulations comprising salts of a protein kinase inhibitor and methods of using same” (Astex Pharmaceuticals, Inc., priority 2007, dated 2013)
